From ChEMBL document CHEMBL1149304, “1,3,4-thiadiazole derivatives. Synthesis, structure elucidation, and structure-antituberculosis activity relationship investigation” (2004)

test system: Mycobacterium tuberculosis; assay: Antituberculosis activity against Mycobacterium tuberculosis H37Rv ATCC 27294 at 6.25 ug/mL; format: functional

In order of falling inhibition at 6.25 µg/mL:
1. Clc1ccc(Nc2nnc(-c3ccncc3)s2)cc1  59%
2. Fc1ccc(Nc2nnc(-c3ccc(Cl)cc3)s2)cc1  54%
3. Brc1ccc(Nc2nnc(-c3ccncc3)s2)cc1  53%
4. Fc1ccc(Nc2nnc(-c3ccc(F)cc3)s2)cc1  52%
5. Fc1ccc(Nc2nnc(-c3ccccc3)s2)cc1  50%
6. Fc1ccc(Nc2nnc(-c3ccncc3)s2)cc1  49%
7. O=[N+]([O-])c1ccc(Nc2nnc(-c3ccc(Cl)cc3)s2)cc1  44%
8. O=[N+]([O-])c1ccc(Nc2nnc(-c3ccc(Br)cc3)s2)cc1  43%
9. Fc1ccc(-c2nnc(Nc3ccc(Cl)cc3)s2)cc1  42%
10. Fc1ccc(Nc2nnc(-c3ccc(Br)cc3)s2)cc1  42%
11. Cc1ccc(Nc2nnc(-c3ccc(Cl)cc3)s2)cc1  42%
12. Fc1ccc(-c2nnc(Nc3ccc(Br)cc3)s2)cc1  40%
13. Cc1ccc(Nc2nnc(-c3ccc(F)cc3)s2)cc1  39%
14. Cc1ccc(Nc2nnc(-c3ccncc3)s2)cc1  38%
15. c1ccc(Nc2nnc(-c3ccncc3)s2)cc1  38%
16. Brc1ccc(Nc2nnc(-c3ccccc3)s2)cc1  36%
17. Clc1ccc(-c2nnc(Nc3ccc(Br)cc3)s2)cc1  34%
18. Clc1ccc(Nc2nnc(-c3ccc(Br)cc3)s2)cc1  33%
19. Brc1ccc(Nc2nnc(-c3ccc(Br)cc3)s2)cc1  33%
20. Cc1ccc(Nc2nnc(-c3ccc([N+](=O)[O-])cc3)s2)cc1  33%
21. Clc1ccc(Nc2nnc(-c3ccc(Cl)cc3)s2)cc1  32%
22. Cc1ccc(Nc2nnc(-c3ccc(Br)cc3)s2)cc1  31%
23. Clc1ccc(Nc2nnc(-c3ccccc3)s2)cc1  30%
24. O=[N+]([O-])c1ccc(-c2nnc(Nc3ccc(F)cc3)s2)cc1  30%
25. O=[N+]([O-])c1ccc(-c2nnc(Nc3ccc(Cl)cc3)s2)cc1  29%
26. O=[N+]([O-])c1ccc(-c2nnc(Nc3ccc(Br)cc3)s2)cc1  26%
27. Cc1ccc(Nc2nnc(-c3ccccc3)s2)cc1  21%
28. O=[N+]([O-])c1ccc(Nc2nnc(-c3ccc([N+](=O)[O-])cc3)s2)cc1  20%
29. O=[N+]([O-])c1ccc(Nc2nnc(-c3ccncc3)s2)cc1  18%
30. O=[N+]([O-])c1ccc(Nc2nnc(-c3ccccc3)s2)cc1  18%
31. O=[N+]([O-])c1ccc(Nc2nnc(-c3ccc(F)cc3)s2)cc1  8%
32. Brc1ccc(-c2nnc(Nc3ccccc3)s2)cc1  0%
